We go through 13 molecules from patent US6933290B2, “2-{N-(2-amino-3-(heteroaryl or aryl)propionyl)-aminoacyl}-amino}-alkylboronic acid derivatives” (Novartis AG, priority 2001, dated 2005).

Several values for one entry are separate records, joined by “and”; a condition that tells them apart may be missing. Equal entries are not always repeated.

In general, IC50 refers to the midpoint of a concentration-inhibition curve.

The assay has as its target T1, chymotrypsin-like activity of the 20S proteasome (Homo sapiens, UniProt P20618+P28074).
T1 construct: purified human placenta 20S proteasome; tissue Diabetes Forschungsinstitut, Düsseldorf, Germany; host or cells: human placenta
Kind of assay: Inhibition of the chymotrypsin-like activity of the 20S proteasome (Suc-LLVY-AMC hydrolysis). In kind it is biochemical. As to conditions: purified human placenta 20S proteasome, Suc-LLVY-AMC substrate, read-out: IC50 [μM] (results of one or two experiments). From the text:
It is based on the hydrolysis of the fluorogenic peptide Suc-LLVY-AMC (Succinyl-leucine-leucine-vatine-tyrosine-7-amino-4-methyl-coumarin), which is cleaved exclusively at the Y-AMC bond by the 20S proteasome. Hydrolysis of this peptide is accompanied by an increase in fluorescence intensity (λex (excitation wavelength): 355 nm; μem (emission wavelength): 460 nm) due to release of the […] that accompanies diffusion apart of the hydrolysis product Suc-LLVY.
2 μl of a 1 mM solution of a test compound in DMSO (dimethylsulfoxide, 20 μM final concentration in the well) are preincubated for 60 min at room temperature in black 96-well microtiter plates together with a mixture of 1 μl purified human placenta 20S proteasome (Diabetes Forschungsinstitut, DÜsseldorf, Germany; about 100 ng proteasome, depending on the proteasome preparation) and 47 μl buffer-Ca (5 mM CaCl2, 20 mM Tris/HCl (Tris-(hydroxymethyl)-amino-methane hydrochloride) pH 8.0). 3 μl of a 2.67 mM solution of Suc-LLVY-AMC (Bachem, Switzerland) in DMSO (80 μM final concentration in the well) and 47 μl buffer-Ca are mixed and added. The resulting mixture is incubated for 3-24 h at 37° C. If desired, proteolysis of the substrate can be stopped by addition of 50 μl stop solution (100 mM monochloroacetic acid, 130 mM NaOH, 100 mM acetic acid, pH=4.3). The fluorescence is monitored with a FLUOROSKAN ASCENT™ microtiter plate reader.
For each measurement series two control experiments are carried out: • 1.) 0% value: 2 μl DMSO are used in the above described assay instead of 2 μl of a 1 mM solution of a test compound in DMSO and 48 μl buffer-Ca instead of a mixture of 47 μl buffer-Ca and 1 μl purified proteasome. • 2.) 100% value: in the above described assay 2 μl DMSO are used instead of 2 μl of a 1 mM solution of the test compound in DMSO. Calculation [formula]
The IC50 value is defined as that concentration of a compound at which the remaining activity is 50% compared to the […].

As to `COc1cc(C[C@H](Nc2cccc(-c3ccccc3)c2)C(=O)N[C@@H](C)C(=O)N[C@@H](CC(C)C)B2O[C@@H]3C[C@@H]4C[C@@H](C4(C)C)[C@]3(C)O2)cc(OC)c1OC` [Example 37, (S)-2-(Biphenyl-3-ylamino)-N-{(S)-1-[(R)-3-methyl-1-((1S,2S,6R,8S)-2,9,9-trimethyl-3,5-dioxa-4-bora-tricyclo[6.1.1.0^2,6]dec-4-yl)-butylcarbamoyl]-ethyl}-3-(3,4,5-trimethoxy-phenyl)-propionamide], the IC50 is 0.0013 µM. In the case of `COc1ccc(C[C@H](Nc2cccc(-c3ccccc3)c2)C(=O)N[C@H](C(=O)N[C@@H](CC(C)C)B(O)O)C(C)C)c(OC)c1OC` [Example 16, (R)-1-{(S)-2-[(S)-2-(Biphenyl-3-ylamino)-3-(2,3,4-trimethoxy-phenyl)-propionylamino]-3-methyl-butyrylamino}-3-methyl-butylboronic acid] it was 0.0059 µM; in that of `COc1cc(C[C@H](Nc2cccc(-c3ccccc3)c2)C(=O)N[C@H](C(=O)N[C@@H](Cc2ccccc2)B(O)O)C(C)C)cc(OC)c1OC` [Example 50, (R)-1-{(S)-2-[(S)-2-(Biphenyl-3-ylamino)-3-(3,4,5-trimethoxy-phenyl)-propionylamino]-3-methyl-butyrylamino}-2-phenyl-ethylboronic acid], 0.0023 µM. `COc1cc(C[C@H](Nc2cccc(-c3ccccc3)c2)C(=O)N[C@@H](CC(C)C)C(=O)N[C@@H](CC(C)C)B(O)O)cc(OC)c1OC` [Example 32, (R)-1-{(S)-2-[(S)-2-(Biphenyl-3-ylamino)-3-(3,4,5-trimethoxy-phenyl)-propionylamino]-4-methyl-pentanoylamino}-3-methyl-butylboronic acid]: the IC50 was determined as 0.0037 µM. The figure for `COc1cc(C[C@H](NC(=O)Cc2cccc(Oc3ccccc3)c2)C(=O)N[C@H](C(=O)N[C@@H](CC(C)C)B(O)O)C(C)C)cc(OC)c1OC` [Example 28, (R)-3-Methyl-1-{(S)-3-methyl-2-[(S)-2-[2-(3-phenoxy-phenyl)-acetylamino]-3-(3,4,5-trimethoxy-phenyl)-propionylamino]-butyrylamino}-butylboronic acid] is 0.0008 µM; for `COc1ccc(C[C@H](NC(=O)Cc2cccc(Oc3ccccc3)c2)C(=O)N[C@H](C(=O)N[C@@H](CC(C)C)B2O[C@@H]3C[C@@H]4C[C@@H](C4(C)C)[C@]3(C)O2)C(C)C)c(OC)c1OC` [Example 3, (S)-3-Methyl-N-[(R)-3-methyl-1-((1S,2S,6R,8S)-2,9,9-trimethyl-3,5-dioxa-4-bora-tricyclo[6.1.1.0^2,6]dec-4-yl)-butyl]-2-[(S)-2-[2-(3-phenoxy-phenyl)-acetylamino]-3-(2,3,4-trimethoxy-phenyl)-propionylamino]-butyramide] it is 0.0017 µM and 0.0014 µM; for `COc1ccc(C[C@H](Nc2cccc(-c3ccccc3)c2)C(=O)N[C@H](C(=O)N[C@@H](CC(C)C)B2O[C@@H]3C[C@@H]4C[C@@H](C4(C)C)[C@]3(C)O2)C(C)C)cc1` [Example 7, (S)-2-[(S)-2-(Biphenyl-3-ylamino)-3-(4-methoxy-phenyl)-propionylamino]-3-methyl-N-[(R)-3-methyl-1-((1S,2S,6R,8S)-2,9,9-trimethyl-3,5-dioxa-4-bora-tricyclo[6.1.1.0^2,6]dec-4-yl)-butyl]-butyramide] it is 0.0029 µM and 0.0032 µM. On to `COc1ccc(C[C@H](NC(=O)CCc2ccccc2)C(=O)N[C@@H](C)C(=O)N[C@@H](CC(C)C)B(O)O)c(OC)c1OC` [Example 48, (R)-3-Methyl-1-{(S)-2-[(S)-2-(3-phenyl-propionylamino)-3-(2,3,4-trimethoxyphenyl)-propionylamino]-propionylamino}-butylboronic acid], for which the IC50 was 0.0007 µM.

On to `COc1ccc(C[C@H](Nc2cccc(-c3ccccc3)c2)C(=O)N[C@H](C(=O)N[C@@H](CC(C)C)B(O)O)C(C)C)cc1` [Example 8, (R)-1-{(S)-2-[(S)-2-(Biphenyl-3-ylamino)-3-(4-methoxy-phenyl)-propionylamino]-3-methyl-butyrylamino}-3-methyl-butylboronic acid], for which the IC50 is 0.0028 µM and 0.0045 µM. In the case of `COc1ccc(C[C@H](Nc2cccc(-c3ccccc3)c2)C(=O)N[C@@H](CC(C)C)C(=O)N[C@@H](CC(C)C)B2O[C@@H]3C[C@@H]4C[C@@H](C4(C)C)[C@]3(C)O2)cc1` [Example 35, (S)-2-[(S)-2-(Biphenyl-3-ylamino)-3-(4-methoxy-phenyl)-propionylamino]-4-methyl-pentanoic acid [(R)-3-methyl-1-((1S,2S,6R,8S)-2,9,9-trimethyl-3,5-dioxa-4-bora-tricyclo[6.1.1.0^2,6]dec-4-yl)-butyl]-amide], the IC50 was found to be 0.0023 µM. On to `COc1cc(C[C@H](Nc2cccc(-c3ccccc3)c2)C(=O)N[C@@H](C)C(=O)N[C@@H](CC(C)C)B(O)O)cc(OC)c1OC` [Example 38, (R)-1-{(S)-2-[(S)-2-(Biphenyl-3-ylamino)-3-(3,4,5-trimethoxy-phenyl)-propionylamino]-propionylamino}-3-methyl-butylboronic acid], for which the IC50 was 0.0017 µM.

As for `COc1ccc(C[C@H](Nc2cccc(-c3ccccc3)c2)C(=O)N[C@@H](C)C(=O)N[C@@H](CC(C)C)B2O[C@@H]3C[C@@H]4C[C@@H](C4(C)C)[C@]3(C)O2)cc1` [Example 41, (S)-2-(Biphenyl-3-ylamino)-3-(4-methoxy-phenyl)-N-{(S)-1-[(R)-3-methyl-1-((1S,2S,6R,8S)-2,9,9-trimethyl-3,5-dioxa-4-bora-tricyclo[6.1.1.0^2,6]dec-4-yl)-butylcarbamoyl]-ethyl}-propionamide], the IC50 came out at 0.0012 µM. In the case of `COc1ccc(C[C@H](NC(=O)CCc2ccccc2)C(=O)N[C@H](C(=O)N[C@@H](CC(C)C)B(O)O)C(C)C)c(OC)c1OC` [Example 6, (R)-3-Methyl-1-{(S)-3-methyl-2-[(S)-2-(3-phenyl-propionylamino)-3-(2,3,4-trimethoxy-phenyl)-propionylamino]-butyrylamino}-butylboronic acid], the IC50 is 0.0018 µM and 0.0019 µM.
